# Assay results: publication PMC4868737, “BAY 1024767 blocks androgen receptor mutants found in castration-resistant prostate cancer patients” (Oncotarget, 2016)
# Experiments:
# AR M895V = target: T1, AR M895V (Homo sapiens, UniProt P10275, M895V/M896V); assay: cell-based; details: IC50 (antagonistic activity)
# T1 sequence (P10275 1-920 M895V/M896V): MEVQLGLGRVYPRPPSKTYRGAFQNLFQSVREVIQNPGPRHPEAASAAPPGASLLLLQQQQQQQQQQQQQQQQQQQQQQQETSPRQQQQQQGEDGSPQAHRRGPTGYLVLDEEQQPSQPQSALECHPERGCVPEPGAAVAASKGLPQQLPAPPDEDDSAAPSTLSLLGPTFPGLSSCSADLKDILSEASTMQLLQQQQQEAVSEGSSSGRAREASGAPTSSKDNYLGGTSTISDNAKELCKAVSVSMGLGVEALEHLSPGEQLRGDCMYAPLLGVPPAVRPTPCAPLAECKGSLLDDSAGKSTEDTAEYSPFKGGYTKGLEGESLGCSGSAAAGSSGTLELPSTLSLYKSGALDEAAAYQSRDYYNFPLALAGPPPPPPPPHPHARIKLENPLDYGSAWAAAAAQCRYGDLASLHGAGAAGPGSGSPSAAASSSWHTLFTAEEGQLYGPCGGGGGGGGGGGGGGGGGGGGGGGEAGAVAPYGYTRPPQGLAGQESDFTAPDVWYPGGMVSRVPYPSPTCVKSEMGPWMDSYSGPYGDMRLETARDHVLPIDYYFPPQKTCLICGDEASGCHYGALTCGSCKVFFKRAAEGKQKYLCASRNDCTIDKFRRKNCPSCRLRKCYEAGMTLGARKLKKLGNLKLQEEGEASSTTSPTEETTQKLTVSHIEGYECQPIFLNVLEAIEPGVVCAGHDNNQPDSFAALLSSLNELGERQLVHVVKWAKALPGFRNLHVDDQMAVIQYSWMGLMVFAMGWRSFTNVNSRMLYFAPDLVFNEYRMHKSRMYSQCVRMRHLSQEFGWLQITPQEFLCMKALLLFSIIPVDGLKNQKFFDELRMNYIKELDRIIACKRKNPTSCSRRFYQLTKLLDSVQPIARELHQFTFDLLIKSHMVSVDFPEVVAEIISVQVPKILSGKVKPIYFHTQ
# [1] = Metabolic stability in liver microsomes; format: in vitro ADME; details: 1 μM, calculated from half-life
# Protocol: The metabolic stability of BAY 1024767 was determined by incubating the compound with suspensions of liver microsomes from different species at a concentration of 1 μM. The intrinsic clearance was calculated from the half-life of the compound. Together with additional parameters like microsomal protein content, species-specific liver weight and liver blood flow, the hepatic in vivo blood clearance (CLH) was calculated.
# [2] = test system: PSA and FKBP5 expression in VCaP cells (AR wild-type); assay: mRNA expression of androgen target genes (real-time PCR); format: cell-based, human; details: 1 nM R1881, 24 h
# Protocol: (§1) VCaP or LNCaP cells were seeded into 6-well plates in RPMI 1640 medium without phenol red, supplemented with 10% charcoal-stripped fetal calf serum (cFCS) and 2 mM stable glutamine, and maintained for 2 days prior to treatment. […] After 24 h treatment, total RNA was extracted using the RNeasy Mini Kit (Qiagen, Hilden, Germany) and reverse-transcription was performed using the SuperScript™ III First-Strand Synthesis SuperMix for qRT-PCR (Invitrogen, Carlsbad, […]). Transcript levels of AR target genes were determined by real-time PCR using the following assays (Applied Biosystems, Foster City, CA, USA): PSA Hs02576345_m1 and FKBP5 Hs00188025_m1. Human PPIA (Cyclophilin A) 4326316E was used as an internal control.
# [3] = test system: PSA and FKBP5 expression in LNCaP cells (AR T877A mutant); assay: as above; format: cell-based, human; details: 1 nM R1881, 24 h
# Protocol: as §1
# [4] = test system: VCaP (AR wild-type, overexpressed); assay: Cell proliferation assay (Alamar Blue); format: cell-based; details: Homo sapiens, 168 h
# Protocol: (§2) All assays were performed in 96-well microtiter plates. […] LAPC-4 cells were plated at 4,000 cells/well, VCaP cells at 16,000 cells/well, LNCaP cells at 2,000 cells/well, 22Rv1 cells at 4,000 cells/well. After 1 day, the cells were treated with R1881 (0.1 nM final concentration, except for LAPC-4 where the final concentration was 1 nM) and compound (day 0). Cell number was determined by Alamar Blue staining (2 h). Fluorescence was measured in a Victor3 device (PerkinElmer, Waltham, MA, USA) with the excitation filter set at 530 nm and the emission filter set at 590 nm. C0 was defined as the signal measured at day 7 for cells treated only with R1881 and CI was defined as the signal measured at day 7 for cells grown without R1881 or compound.
# LNCaP (AR 877A) = assay: Cell proliferation assay (Alamar Blue); format: cell-based; details: Homo sapiens, 168 h
# Protocol: as §2
# LAPC-4 (AR wild-type) = assay: Cell proliferation assay (Alamar Blue); format: cell-based; details: Homo sapiens, LAPC4, 168 h
# Protocol: as §2
# [5] = test system: 22Rv1 (AR H874Y, splice variants); assay: Cell proliferation assay (Alamar Blue); format: cell-based; details: Homo sapiens, 22Rv1, 168 h
# Protocol: as §2
compound,measurement,setting,value
CC(C)(O)COc1ccc(CN2C(=S)N(c3ccc(C#N)c(C(F)(F)F)c3)C(=O)C2(C)C)cn1 [BAY 1024767],IC50,AR M895V; R1881 0.1 nM,0.011 µM
same,IC50,AR M895V; R1881 1 nM,0.031 µM
same,IC50,AR M895V; R1881 10 nM,0.33 µM
same,CLH,[1]; dog liver microsomes,4.5 mL/min/kg
same,CLH,[1]; human liver microsomes,5.83 mL/min/kg
same,CLH,[1]; monkey liver microsomes,11.7 mL/min/kg
same,CLH,[1]; mouse liver microsomes,3.17 mL/min/kg
same,CLH,[1]; rat liver microsomes,4.67 mL/min/kg
same,PSA and FKBP5 expression,[2],dose-dependent down-regulations
same,PSA and FKBP5 expression,[3],dose-dependent down-regulations
same,GI50,[4],0.229 µM
same,GI50,LNCaP (AR 877A),0.221 µM
same,GI50,LAPC-4 (AR wild-type),0.046 µM
same,GI50,[5],0.041 µM
